Reference: patent US20200123175A1, “NOVEL ISOTHIAZOLO-BASED BICYCLES, PROCESSES FOR THEIR PREPARATION AND THEIR USE AS HERBICIDES AND/OR PLANT GROWTH REGULATORS” (Bayer CropScience Aktiengesellschaft, priority 2017, published 2020)

Experiments:
AMARE [1] = test: Herbicidal action post-emergence (PO); type: in vivo, Amaranthus retroflexus; settings: dosage 320 g/ha
ABUTH = test: Herbicidal action post-emergence (PO); type: in vivo, Abutilon theophrasti; settings: dosage 320 g/ha
VIOTR [2] = test: Herbicidal action post-emergence (PO); type: in vivo, Viola tricolor; settings: dosage 320 g/ha
AMARE [3] = test: Herbicidal action pre-emergence (PE); type: in vivo, Amaranthus retroflexus; settings: dosage 320 g/ha
ALOMY = test: Herbicidal action pre-emergence (PE); type: in vivo, Alopecurus myosuroides; settings: dosage 320 g/ha
VIOTR [4] = test: Herbicidal action pre-emergence (PE); type: in vivo, Viola tricolor; settings: dosage 320 g/ha
PHBPU = test: Herbicidal action post-emergence (PO); type: in vivo, Pharbitis purpurea; settings: dosage 320 g/ha
SETVI [5] = test: Herbicidal action post-emergence (PO); type: in vivo, Setaria viridis; settings: dosage 320 g/ha
Puccinia recondita = test: In vivo preventive test on Puccinia recondita (brown rust on wheat); settings: 100 ppm of active ingredient; wheat plants; evaluated 11 days after the inoculation
Experimental: (§1) 4) Example: In Vivo Preventive Test on Puccinia recondita (Brown Rust on Wheat) [table] The active ingredients were made soluble and homogenized in a mixture of Dimethyl sulfoxide/Acetone//Tween® 80 and then diluted in water to the desired concentration. The young plants of wheat were treated by spraying the active ingredient prepared as described above. Control plants were treated only with an aqueous solution of Acetone/Dimethyl sulfoxide/Tween® 80. After 24 hours, the plants were contaminated by spraying the leaves with an aqueous suspension of Puccinia recondita spores.

POLCO = test: Herbicidal action pre-emergence (PE); type: in vivo, Polygonum convolvulus; settings: dosage 320 g/ha
Pyrenophora teres = test: In vivo preventive test on Pyrenophora teres (net blotch on barley); settings: 100 ppm of active ingredient; barley plants; evaluated 14 days after the inoculation
Experimental: as §1, with “5)” for “4)”, “Pyrenophora teres (Net Blotch” for “Puccinia recondita (Brown Rust”, “Barley)” for “Wheat)”, “barley” for “wheat”, “Pyrenophora teres” for “Puccinia recondita”

MATIN = test: Herbicidal action pre-emergence (PE); type: in vivo, Matricaria inodora; settings: dosage 320 g/ha
ECHCG = test: Herbicidal action pre-emergence (PE); type: in vivo, Echinochloa crus-galli; settings: dosage 320 g/ha
SETVI [6] = test: Herbicidal action pre-emergence (PE); type: in vivo, Setaria viridis; settings: dosage 320 g/ha

Compound | AMARE (AMARE [1]) | ABUTH (ABUTH) | VIOTR (VIOTR [2]) | AMARE (AMARE [3]) | ALOMY (ALOMY) | VIOTR (VIOTR [4]) | PHBPU (PHBPU) | SETVI (SETVI [5]) | efficacy (Puccinia recondita) | POLCO (POLCO) | efficacy (Pyrenophora teres) | MATIN (MATIN) | ECHCG (ECHCG) | SETVI (SETVI [6])
O=C(Nc1nsc2c(=O)n(CC3CCCCC3)cnc12)c1cccnc1 [Example I-06] | 100 | 100 | 100 | 100 | 90 | 100 | – | – | – | – | – | – | – | –
O=C(Nc1nsc2c(=O)n(CC3CCCCC3)cnc12)C1CC1 [Example I-07] | 100 | 80 | 100 | 100 | 100 | 100 | 100 | 100 | at least 70% | – | – | – | – | –
O=C(Nc1nsc2c(=O)n(CC3CCCCC3)cnc12)c1ccc(Cl)cc1 [Example I-18] | – | – | – | 100 | 80 | 100 | – | – | – | – | – | – | – | –
O=C(Nc1nsc2c(=O)n(CC3CCCCC3)cnc12)c1cc(Cl)cc(Cl)c1 [Example I-20] | – | – | – | 100 | 80 | 100 | – | – | – | – | – | – | – | –
O=C(Nc1nsc2c(=O)n(CC3CCCCC3)cnc12)C(F)F [Example I-44] | 100 | 100 | 100 | 100 | – | 100 | – | – | – | 100 | at least 70% | 100 | 100 | 100
Nc1nsc2c1NCN(CC1CCCCCC1)C2=O [Example I-59, 3-amino-6-(cycloheptylmethyl)-4,5-dihydroisothiazolo[4,5-d]pyrimidin-7-one] | 100 | 100 | 100 | 100 | – | 100 | 100 | 100 | – | 100 | – | 100 | 100 | 100
Nc1nsc2c1NCN(CC1CCCCC1)C2=O [Example I-61] | 100 | 100 | 100 | 100 | – | 100 | 90 | 100 | – | 100 | – | 100 | 100 | 100
O=C(Nc1nsc2c(=O)n(CC3CCCCC3)cnc12)C(F)(F)C(F)(F)Cl [Example I-68] | 100 | 100 | 100 | 100 | – | 100 | 100 | 100 | – | 100 | – | 100 | 100 | 100
COCC(=O)Nc1nsc2c(=O)n(CC3CCCCC3)cnc12 [Example I-69] | 100 | 90 | 100 | 100 | – | 100 | 100 | 100 | – | 100 | – | 100 | 100 | 100
COC(=O)C(=O)Nc1nsc2c(=O)n(CC3CCCCC3)cnc12 [Example I-70] | 100 | 80 | 100 | 100 | 100 | 100 | 100 | 100 | – | – | – | – | – | –
COC(=O)CC(=O)Nc1nsc2c(=O)n(CC3CCCCC3)cnc12 [Example I-71] | 100 | 100 | 100 | 100 | – | 100 | 100 | 100 | – | 100 | – | 100 | 100 | 100
COC(=O)CCC(=O)Nc1nsc2c(=O)n(CC3CCCCC3)cnc12 [Example I-72] | 100 | 100 | 90 | 100 | – | 100 | 100 | 90 | – | 100 | – | 100 | 100 | 100
O=C(Nc1nsc2c(=O)n(Cc3ccc(F)cc3F)cnc12)C(F)(F)C(F)(F)F [Example I-78] | 100 | 80 | 100 | 100 | – | 100 | 100 | 100 | – | 100 | – | 100 | 100 | 100
CC(=O)Nc1nsc2c(=O)n(Cc3ccc(F)cc3F)cnc12 [Example I-79] | 100 | 90 | 100 | 100 | 100 | 100 | – | – | – | – | – | – | – | –
CCC(=O)Nc1nsc2c(=O)n(Cc3ccc(F)cc3F)cnc12 [Example I-84] | 100 | 100 | 100 | 100 | – | 100 | 100 | 100 | – | 100 | – | 100 | 100 | 100
O=C(Nc1nsc2c(=O)n(Cc3ccc(F)cc3F)cnc12)C(F)(F)F [Example I-85] | 100 | 80 | 100 | 100 | – | 100 | 100 | 100 | – | 100 | – | 100 | 100 | 100
